We go through 37 substances from US11541107B2, “Peptides and T cells for use in immunotherapeutic treatment of various cancers” (Immatics Biotechnologies GmbH, priority 2015, dated 2023).

For assay [1], the system named is CD8+ T cells. The assay is described as follows: In vitro T-cell priming assay (aAPCs loaded with peptide/MHC and anti-CD28, pMHC multimer readout; HLA-A*02 and HLA-A*24). It counts as cell-based, human. The settings on record: in vitro immunogenicity of HLA class I peptides; for Wells positive [%]: peptide-specific T cells by pMHC multimer staining. An excerpt: In order to obtain information regarding the immunogenicity of the TUMAPs of the present invention, the inventors performed investigations using an in vitro T-cell priming assay based on repeated stimulations of CD8+ T cells with artificial antigen presenting cells (aAPCs) loaded with peptide/MHC complexes and anti-CD28 antibody.
In order to perform in vitro stimulations by artificial antigen presenting cells loaded with peptide-MHC complex (pMHC) and anti-CD28 antibody, the inventors first isolated CD8+ T cells from fresh HLA-A*02 leukapheresis products via positive selection using CD8 microbeads (Miltenyi Biotec, Bergisch-Gladbach, Germany) of healthy donors obtained from the University clinics Mannheim, Germany, after informed consent.
PBMCs and isolated CD8+ lymphocytes were incubated in T-cell medium (TCM) until use consisting of RPMI-Glutamax (Invitrogen, Karlsruhe, Germany) supplemented with 10% heat inactivated human AB serum (PAN-Biotech, Aidenbach, Germany), 100 U/ml Penicillin/100 μg/ml Streptomycin (Cambrex, Cologne, Germany), 1 mM sodium pyruvate (CC Pro, Oberdorla, Germany), 20 μg/ml Gentamycin (Cambrex). 2.5 ng/ml IL-7 (PromoCell, Heidelberg, Germany) and 10 U/ml IL-2 (Novartis Pharma, Nürnberg, Germany) were also added to the TCM at this step.
Generation of pMHC/anti-CD28 coated beads, T-cell stimulations and readout was performed in a highly defined in vitro system using four different pMHC molecules per stimulation condition and 8 different pMHC molecules per readout condition.
The purified co-stimulatory mouse IgG2a anti human CD28 Ab 9.3 (Jung et al., 1987) was chemically biotinylated using Sulfo-N-hydroxysuccinimidobiotin as recommended by the manufacturer (Perbio, Bonn, Germany). Beads used were 5.6 μm diameter streptavidin coated polystyrene particles (Bangs Laboratories, Illinois, USA).
pMHC used for positive and negative control stimulations were A*0201/MLA-001 (peptide […] (SEQ ID NO. 418) from modified Melan-A/MART-1) and A*0201/DDX5-001 ([…] from DDX5, SEQ ID NO. 419), respectively.
800.000 beads/200 μl were coated in 96-well plates in the presence of 4×12.5 ng different biotin-pMHC, washed and 600 ng biotin anti-CD28 were added subsequently in a volume of 200 μl. Stimulations were initiated in 96-well plates by co-incubating 1×10^6 CD8+ T cells with 2×10^5 washed coated beads in 200 μl TCM supplemented with 5 ng/ml IL-12 (PromoCell) for 3 days at 37° C. Half of the medium was then exchanged by fresh TCM supplemented with 80 U/ml IL-2 and incubating was continued for 4 days at 37° C. This stimulation cycle was performed for a total of three times. For the pMHC multimer readout using 8 different pMHC molecules per condition, a two-dimensional combinatorial coding approach was used as previously described (Andersen et al., 2012) with minor modifications encompassing coupling to 5 different fluorochromes. Finally, multimeric analyses were performed by staining the cells with Live/dead near IR dye (Invitrogen, Karlsruhe, Germany), CD8-FITC antibody clone SK1 (BD, Heidelberg, Germany) and fluorescent pMHC multimers. For analysis, a BD LSRII SORP cytometer equipped with appropriate lasers and filters was used. Peptide specific cells were calculated as percentage of total CD8+ cells. Evaluation of multimeric analysis was done using the FlowJo software (Tree Star, Oregon, USA). In vitro priming of specific multimer+CD8+ lymphocytes was detected by comparing to negative control stimulations.
Exemplary flow cytometry results after TUMAP-specific multimer staining for 2 peptides of the invention are shown in FIGS. 3A-3B together with corresponding negative controls. Results for 5 peptides from the invention are summarized in Table12A. Exemplary flow cytometry results after TUMAP-specific multimer staining for 7 peptides of the invention are shown in FIGS. 4A-4C and FIGS. 5A-5D together with corresponding negative controls.

For assay [2], the system named is HLA-A*24. The assay is described as follows: MHC binding assay, UV-ligand exchange with beta2m ELISA, HLA-A*24. Set-up: species or system human. The settings on record: binding to HLA-A*24 ranged by peptide exchange yield (UV-ligand exchange, beta2m ELISA). The gist of the method:
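Peptide–MHC complexes made by UV-ligand exchange of a UV-cleavable peptide. Exchange yield measured by ELISA: monomers diluted 100-fold on streptavidin-coated plates, 1 h at 37°C, detected with HRP anti-β2m (2 ug/ml) and TMB, absorbance at 450 nm.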
Background: In an ELISA, binding on a coated surface is turned into a signal by an enzyme label.

For “407 (VYGIRLEHF; listed as Homo sapiens) [compound 407]”, the wells entry in assay [1] (share of positive wells after stimulation of CD8+ T cells of healthy donors) was “+++ (50%-69%= +++)”.
As for “344 (EYNSDLHQF; listed as Homo sapiens) [compound 344]”, in assay [1], the “Wells positive [%]” value is reported as “+ (<20% = +)”. In assay [2], the Peptide exchange entry is “+++ (50%-75% = +++)”.
Taken in the same sequence, the figures for “358 (YYSEVPVKL; listed as Homo sapiens) [compound 358]” were “++++ (>=70% = ++++)” and “+++ (50%-75% = +++)”.
Turning to “359 (NYGVLHVTF; listed as Homo sapiens) [compound 359]”, the “Wells positive [%]” value in assay [1] is reported as “+ (<20% = +)”. Moreover, in assay [2], the Peptide exchange result was “++++ (>=75% = ++++)”.
For the substance “105 (IYNETITDLL; listed as Homo sapiens) [compound 105]”, the “Wells positive [%]” value in assay [1] was “+ (<20% = +)”. In addition, in assay [2], the Peptide exchange entry is recorded as “+++ (50%-75% = +++)”.
For the substance “181 (VYPPYLNYL; listed as Homo sapiens) [compound 181]”, the “Wells positive [%]” value in assay [1] was “++++ (>=70% = ++++)”. For the same substance, in assay [2], the Peptide exchange entry is listed as “+++ (50%-75% = +++)”.
As to “167 (RYGFYYVEF; listed as Homo sapiens) [compound 167]”, in assay [1], the “Wells positive [%]” value was “++++ (>=70% = ++++)”. Further, the Peptide exchange result in assay [2] is given as “+++ (50%-75% = +++)”.
With “172 (VFIFKGNEF; listed as Homo sapiens) [compound 172]”, in assay [1], the “Wells positive [%]” value is recorded as “+ (<20% = +)”. Also, the Peptide exchange entry in assay [2] is given as “++++ (>=75% = ++++)”.
With “175 (LYSPVPFTL; listed as Homo sapiens) [compound 175]”, the “Wells positive [%]” value in assay [1] is recorded as “+ (<20% = +)”. For the same substance, the Peptide exchange entry in assay [2] is given as “+++ (50%-75% = +++)”.
Taken in the same sequence, the figures for “157 (DYIPASGFALF; listed as Homo sapiens) [compound 157]” were “+ (<20% = +)” and “+++ (50%-75% = +++)”.
“174 (VYEKNGYIYF; listed as Homo sapiens) [compound 174]”: the “Wells positive [%]” value in assay [1] is “++++ (>=70% = ++++)”. For the same substance, the Peptide exchange entry in assay [2] was “+++ (50%-75% = +++)”.
Taken in the same sequence, the figures for “156 (YYMELTKLLL; listed as Homo sapiens) [compound 156]” were “+ (<20% = +)” and “++++ (>=75% = ++++)”.
Taken in the same sequence, the figures for “160 (RYGDGGSSF; listed as Homo sapiens) [compound 160]” were “+ (<20% = +)” and “+++ (50%-75% = +++)”.
Consider “137 (EYLHNCSYF; listed as Homo sapiens) [compound 137]”, for which the “Wells positive [%]” value in assay [1] is on record as “+ (<20% = +)”. In assay [2], the Peptide exchange result was “++++ (>=75% = ++++)”.
Taken in the same sequence, the figures for “353 (TYGKIDLGF; listed as Homo sapiens) [compound 353]” were “+ (<20% = +)” and “+++ (50%-75% = +++)”.
Taken in the same sequence, the figures for “106 (IYNETVRDLL; listed as Homo sapiens) [compound 106]” were “+ (<20% = +)” and “+++ (50%-75% = +++)”.
Taken in the same sequence, the figures for “103 (NYIPVKNGKQF; listed as Homo sapiens) [compound 103]” were “+ (<20% = +)” and “+++ (50%-75% = +++)”.
Turning to “380 (VYTGIDHHW; listed as Homo sapiens) [compound 380]”, the “Wells positive [%]” value in assay [1] is reported as “+ (<20% = +)”. Besides, the Peptide exchange result in assay [2] is given as “++++ (>=75% = ++++)”.
Taken in the same sequence, the figures for “98 (VFPRLHNVLF; listed as Homo sapiens) [compound 98]” were “+ (<20% = +)” and “+++ (50%-75% = +++)”.
In the case of “158 (IYEETRGVLKVF; listed as Homo sapiens) [compound 158]”, in assay [1], the “Wells positive [%]” value was “+ (<20% = +)”. The Peptide exchange result in assay [2] is “+++ (50%-75% = +++)”.
Taken in the same sequence, the figures for “186 (VFTTSSNIF; listed as Homo sapiens) [compound 186]” were “+ (<20% = +)” and “++++ (>=75% = ++++)”.
In the case of “166 (FYTLPFHLI; listed as Homo sapiens) [compound 166]”, in assay [1], the “Wells positive [%]” value is on record as “++++ (>=70% = ++++)”. Besides, the Peptide exchange result in assay [2] was “++++ (>=75% = ++++)”.
As for “162 (KYTSYILAF; listed as Homo sapiens) [compound 162]”, the “Wells positive [%]” value in assay [1] is reported as “+ (<20% = +)”. Moreover, in assay [2], the Peptide exchange result is recorded as “++ (20%-49% = ++)”.
For “161 (KYPDIVQQF; listed as Homo sapiens) [compound 161]”, the “Wells positive [%]” value in assay [1] is “+ (<20% = +)”. In addition, the Peptide exchange result in assay [2] is “+++ (50%-75% = +++)”.
As to “356 (NYMPGQLTI; listed as Homo sapiens) [compound 356]”, the “Wells positive [%]” value in assay [1] is recorded as “+ (<20% = +)”. Moreover, in assay [2], the Peptide exchange entry was “++++ (>=75% = ++++)”.
For the substance “354 (VYNEQIRDLL; listed as Homo sapiens) [compound 354]”, the “Wells positive [%]” value in assay [1] is reported as “+ (<20% = +)”. Moreover, the Peptide exchange entry in assay [2] is given as “+++ (50%-75% = +++)”.
As for “164 (HYVPATKVF; listed as Homo sapiens) [compound 164]”, the “Wells positive [%]” value in assay [1] is reported as “+ (<20% = +)”. Also, in assay [2], the Peptide exchange result was “+++ (50%-75% = +++)”.
As for “177 (VYFKAGLDVF; listed as Homo sapiens) [compound 177]”, in assay [1], the “Wells positive [%]” value is “+ (<20% = +)”. In addition, the Peptide exchange result in assay [2] is “+++ (50%-75% = +++)”.
Regarding “363 (SYAELGTTI; listed as Homo sapiens) [compound 363]”, in assay [1], the “Wells positive [%]” value is reported as “+ (<20% = +)”. Besides, the Peptide exchange entry in assay [2] is reported as “++ (20%-49% = ++)”.
Take “180 (KYLQVVGMF; listed as Homo sapiens) [compound 180]”: the “Wells positive [%]” value in assay [1] is “+ (<20% = +)”. For the same substance, in assay [2], the Peptide exchange result is recorded as “+++ (50%-75% = +++)”.
On to “190 (LYSELTETL; listed as Homo sapiens) [compound 190]”, for which the “Wells positive [%]” value in assay [1] is reported as “++++ (>=70% = ++++)”. For the same substance, the Peptide exchange result in assay [2] is “+++ (50%-75% = +++)”.
Take “365 (VFIDHPVHL; listed as Homo sapiens) [compound 365]”: the “Wells positive [%]” value in assay [1] is recorded as “+ (<20% = +)”. Also, the Peptide exchange result in assay [2] is “++++ (>=75% = ++++)”.
Taken in the same sequence, the figures for “96 (YYTQYSQTI; listed as Homo sapiens) [compound 96]” were “+ (<20% = +)” and “++++ (>=75% = ++++)”.
Turning to “163 (RYLTISNLQF; listed as Homo sapiens) [compound 163]”, in assay [1], the “Wells positive [%]” value is recorded as “+ (<20% = +)”. The Peptide exchange entry in assay [2] is on record as “++++ (>=75% = ++++)”.
Regarding “104 (SYLTWHQQI; listed as Homo sapiens) [compound 104]”, in assay [1], the “Wells positive [%]” value is “+ (<20% = +)”. Also, in assay [2], the Peptide exchange result is given as “++++ (>=75% = ++++)”.
Taken in the same sequence, the figures for “142 (VYVDDIYVI; listed as Homo sapiens) [compound 142]” were “++++ (>=70% = ++++)” and “+++ (50%-75% = +++)”.
“132 (RYPALFPVL; listed as Homo sapiens) [compound 132]”: in assay [1], the “Wells positive [%]” value is on record as “+ (<20% = +)”. In addition, the Peptide exchange entry in assay [2] is “++++ (>=75% = ++++)”.
